This is an account of results in ChEMBL document CHEMBL1268963, “Identification of a sulfonoquinovosyldiacylglyceride from Azadirachta indica and studies on its cytotoxic activity and DNA binding properties” (Bioorg Med Chem Lett, 2010).

In experiment [1] the test system is Calf thymus DNA. Briefly: Binding affinity to calf thymus DNA assessed as exothermic enthalpy at 20 degC by isothermal titration […]. Format: nucleic-acid assay. Conditions: Bos taurus.
For the next experiment, the system named is MOLT-4. Briefly: […] in human MOLT4 cells after 24 to 72 hrs by MTT assay. Format: functional, cell-based. In general terms: Tetrazolium assays rely on reduction of a dye to a coloured formazan, in cell work by metabolically active cells.
In experiment [2] the test system is Calf thymus DNA. Description: Binding affinity to double strand calf thymus DNA assessed as melting temperature. Format: nucleic-acid assay. Conditions: Bos taurus.

SMILES strings stand for the structures.

Usually IC50 stands for the concentration that inhibits the measured activity by half. High values mean weaker potency, low ones greater potency. With `CCCCCCCCCCCCCCCC(=O)OCC(CO[C@H]1O[C@H](CS(=O)(=O)O)[C@@H](O)[C@H](O)[C@H]1O)OC(=O)CCCCCCCCCCCCCCC` (stereo partly drawn), the Ka in the experiment on Calf thymus DNA [1] is 5.64 ×10⁴ /M. The compound further gave an IC50 in the experiment on MOLT-4 of 8.3 µM. The Tm in the experiment on Calf thymus DNA [2] was determined as 62 °C.
